The text below walks through data of patent publication US20250213555A1, “SUBSTITUTED TETRAHYDROFURAN ANALOGS AS MODULATORS OF SODIUM CHANNELS” (VERTEX PHARMACEUTICALS INCORPORATED, priority 2021, published 2025).

Where only a bound is given, the exact number is not on record here.

The target of the test is human Nav 1.8 (Homo sapiens, UniProt Q9Y5Y9). Nature of the test: E-VIPR assay detecting and measuring Nav inhibition properties. Type of test: cell-based. The note with it: HEK cells expressing a truncated form of human Nav 1.8; compound numbers without "*" (not marked as run in the presence of human serum); read-out: measured IC50 value in the E-VIPR Assay. A digest of the protocol: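 Nav inhibition was read by E-VIPR: cells were electrically stimulated while coumarin/oxonol FRET emissions were recorded. Cells were HEK expressing a truncated human Nav 1.8 and co-transduced with KIR2.1, and were assayed in 25% final human serum.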
Chain of human Nav 1.8 (Q9Y5Y9 126-399 limits assumed): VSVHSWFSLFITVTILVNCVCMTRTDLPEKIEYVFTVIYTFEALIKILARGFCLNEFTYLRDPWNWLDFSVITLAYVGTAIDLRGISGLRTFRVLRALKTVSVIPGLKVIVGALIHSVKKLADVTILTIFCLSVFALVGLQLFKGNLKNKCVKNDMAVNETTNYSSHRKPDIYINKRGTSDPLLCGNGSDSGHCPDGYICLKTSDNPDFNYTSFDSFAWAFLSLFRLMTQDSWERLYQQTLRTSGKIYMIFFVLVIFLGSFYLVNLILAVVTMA
Chain of human Nav 1.8 (Q9Y5Y9 660-890 limits assumed): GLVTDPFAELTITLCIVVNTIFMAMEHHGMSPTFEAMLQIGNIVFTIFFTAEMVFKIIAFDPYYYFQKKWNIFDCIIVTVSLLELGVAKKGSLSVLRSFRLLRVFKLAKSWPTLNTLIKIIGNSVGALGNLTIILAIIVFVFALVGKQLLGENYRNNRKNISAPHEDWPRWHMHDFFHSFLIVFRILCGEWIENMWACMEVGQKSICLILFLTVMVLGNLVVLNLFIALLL
Chain of human Nav 1.8 (Q9Y5Y9 1148-1722 limits assumed): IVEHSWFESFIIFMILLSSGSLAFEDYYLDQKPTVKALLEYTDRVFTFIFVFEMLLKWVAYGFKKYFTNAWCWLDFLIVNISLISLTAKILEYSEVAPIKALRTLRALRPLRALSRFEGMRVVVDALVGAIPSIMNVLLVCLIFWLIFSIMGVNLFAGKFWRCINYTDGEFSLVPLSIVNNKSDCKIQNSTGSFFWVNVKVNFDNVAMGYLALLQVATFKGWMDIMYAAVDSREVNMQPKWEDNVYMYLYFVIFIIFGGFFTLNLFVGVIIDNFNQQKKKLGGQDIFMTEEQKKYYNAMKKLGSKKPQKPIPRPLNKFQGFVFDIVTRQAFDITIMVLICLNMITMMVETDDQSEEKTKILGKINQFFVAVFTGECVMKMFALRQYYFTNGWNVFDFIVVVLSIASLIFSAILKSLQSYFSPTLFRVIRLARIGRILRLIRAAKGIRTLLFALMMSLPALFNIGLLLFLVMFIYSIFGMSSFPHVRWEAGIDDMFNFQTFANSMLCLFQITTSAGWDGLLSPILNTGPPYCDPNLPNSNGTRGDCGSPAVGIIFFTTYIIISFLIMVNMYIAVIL
Regarding `COc1c([C@H]2[C@H](C(=O)Nc3ccnc(C(=O)N4C[C@H](N)[C@@H](F)C4)c3)O[C@@](C)(C(F)(F)F)[C@H]2C)ccc(F)c1F` [Compound 260, (2R,3S,4S,5R)-N-(2-((3S,4S)-3-amino-4-fluoropyrrolidine-1-carbonyl)pyridin-4-yl)-3-(3,4-difluoro-2-methoxyphenyl)-4,5-dimethyl-5-(trifluoromethyl)tetrahydrofuran-2-carboxamide], the IC50 is under 10 nM.

Turning to `C[C@H]1[C@@H](c2ccc(F)c(F)c2OCC(=NO)C2(F)CC2)[C@H](C(=O)Nc2ccnc(C(N)=O)c2)O[C@@]1(C)C(F)(F)F` [Compound 190, 4-((2R,3S,4S,5R)-3-(3,4-difluoro-2-(2-(1-fluorocyclopropyl)-2-(hydroxyimino)ethoxy)phenyl)-4,5-dimethyl-5-(trifluoromethyl)tetrahydrofuran-2-carboxamido)picolinamide], the half-inhibitory concentration (IC50) is under 10 nM.

For `COc1c([C@H]2[C@H](C(=O)Nc3ccnc(C(N)=O)c3)O[C@@](C)(C(F)(F)F)[C@H]2C)cc(O)c(F)c1F` [Compound 178, 4-((2R,3S,4S,5R)-3-(3,4-difluoro-5-hydroxy-2-methoxyphenyl)-4,5-dimethyl-5-(trifluoromethyl)tetrahydrofuran-2-carboxamido) picolinamide], the IC50 was under 10 nM.

On to `C[C@H]1[C@@H](c2ccc(F)c(F)c2OC[C@H]2CCO2)[C@H](C(=O)Nc2ccnc(C(N)=O)c2)O[C@@]1(C)C(F)(F)F` (single isomer, unassigned) [Compound 59, rel-4-((2R*,3S*,4S*,5R*)-3-(3,4-difluoro-2-((oxetan-2-yl)methoxy)phenyl)-4,5-dimethyl-5-(trifluoromethyl)tetrahydrofuran-2-carboxamido)picolinamide], for which the IC50 was under 10 nM.

Take `COc1c([C@H]2[C@H](C(=O)Nc3ccnc(C(=O)N4CC5(CNC5)C4)c3)O[C@@](C)(C(F)(F)F)[C@H]2C)ccc(F)c1F` [Compound 228, (2R,3S,4S,5R)-N-(2-(2,6-diazaspiro[3.3]heptane-2-carbonyl)pyridin-4-yl)-3-(3,4-difluoro-2-methoxyphenyl)-4,5-dimethyl-5-(trifluoromethyl)tetrahydrofuran-2-carboxamide]: the IC50 is under 10 nM.

In the case of `COc1c([C@@H]2[C@@H](C(=O)Nc3ccnc(C(N)=O)c3)O[C@](C)(C(F)(F)F)[C@@H]2C)ccc(OCC2CC2)c1F` (single isomer, unassigned) [Compound 141], the IC50 fell in the range of 100 to 1000 nM.

Consider `C[C@H]1[C@@H](c2ccc(F)c(F)c2OCCN(C)C)[C@H](C(=O)Nc2ccnc(C(N)=O)c2)O[C@@]1(C)C(F)(F)F` [Compound 44, 4-((2R,3S,4S,5R)-3-(2-(2-(dimethylamino)ethoxy)-3,4-difluorophenyl)-4,5-dimethyl-5-(trifluoromethyl)tetrahydrofuran-2-carboxamido) picolinamide], for which the IC50 lay within 10 to 100 nM.

For `COc1c([C@H]2[C@H](C(=O)Nc3ccnc(C(=O)N4CCN(C)[C@H]5C[C@H]54)c3)O[C@@](C)(C(F)(F)F)[C@H]2C)ccc(F)c1F` (single isomer, unassigned) [Compound 294, rel-(2R*,3S*,4S*,5R*)-3-(3,4-difluoro-2-methoxyphenyl)-4,5-dimethyl-N-(2-((1R,6S)-5-methyl-2,5-diazabicyclo[4.1.0]heptane-2-carbonyl)pyridin-4-yl)-5-(trifluoromethyl)tetrahydrofuran-2-carboxamide], the IC50 was under 10 nM.

Regarding `C[C@H]1[C@@H](c2ccc(F)c(F)c2OCCCN2CCOCC2)[C@H](C(=O)Nc2ccnc(C(N)=O)c2)O[C@@]1(C)C(F)(F)F` [Compound 62, 4-((2R,3S,4S,5R)-3-(3,4-difluoro-2-(3-morpholinopropoxy)phenyl)-4,5-dimethyl-5-(trifluoromethyl)tetrahydrofuran-2-carboxamido)picolinamide], the half-inhibitory concentration (IC50) was under 10 nM.
